# Assay results published in paper PMC10057445, “Interactions of N-Mannich Bases of Pyrrolo[3,4-c]pyrrole with Artificial Models of Cell Membranes and Plasma Proteins, Evaluation of Anti-Inflammatory and Antioxidant Activity” (Membranes, 2023).
# Biological target: T1, human serum albumin (HSA) (Homo sapiens, UniProt P02768)
# T1 construct: gene ALB; commercial powder (Sigma Aldrich), mature plasma protein
# Experiment: intrinsic fluorescence quenching, ex […] nm
# Assay type: binding
# Conditions: double-log; 297 K, pH 7.4 phosphate, no site marker
# T1 sequence (P02768 25-609): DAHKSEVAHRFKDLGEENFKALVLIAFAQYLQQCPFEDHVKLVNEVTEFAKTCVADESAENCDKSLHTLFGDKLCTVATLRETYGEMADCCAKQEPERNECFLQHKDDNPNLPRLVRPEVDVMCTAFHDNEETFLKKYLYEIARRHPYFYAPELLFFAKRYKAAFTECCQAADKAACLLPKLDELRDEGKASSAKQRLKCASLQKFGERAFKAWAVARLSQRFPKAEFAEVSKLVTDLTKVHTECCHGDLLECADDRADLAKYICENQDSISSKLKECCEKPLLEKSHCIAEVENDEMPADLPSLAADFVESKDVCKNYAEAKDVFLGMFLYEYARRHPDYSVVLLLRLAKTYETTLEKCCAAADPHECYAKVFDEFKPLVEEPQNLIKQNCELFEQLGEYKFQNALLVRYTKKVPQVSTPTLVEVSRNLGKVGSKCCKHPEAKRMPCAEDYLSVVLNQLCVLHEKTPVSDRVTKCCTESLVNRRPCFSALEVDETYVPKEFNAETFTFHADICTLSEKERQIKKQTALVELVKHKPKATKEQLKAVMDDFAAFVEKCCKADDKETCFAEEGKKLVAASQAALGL
row,Binding / Kb × 10^3 [dm^3.mol^-1],Compound
1,9.12 × 10^3 dm^3·mol^-1,Cc1c2c(c(C)n1-c1ccccc1)C(=O)N(CN1CCN(c3ccccc3)CC1)C2=O [7a]
2,1.66 × 10^3 dm^3·mol^-1,Cc1c2c(c(C)n1-c1ccccc1)C(=O)N(CN1CCN(S(C)(=O)=O)CC1)C2=O [7l]
